Data reported in the supplement of paper PMC13380429.

Assays:
[1] = test system: A549-ACE2 infected with SARS-CoV-2; assay: morphology score (similarity to uninfected cells); higher = more like uninfected cells; details: 24 h
[2] = test system: A549-ACE2 infected with SARS-CoV-2; assay: SARS-CoV-2 infection rate relative to DMSO; higher = more infection; details: 24 h
U2OS [3] = assay: cell viability relative to DMSO; higher = less toxic; details: 72 h
Calu-3 [4] = assay: as above; details: 72 h
Vero E6 [5] = assay: as above; details: 72 h
Caco-2 [6] = assay: as above; details: 72 h
HepG2 [7] = assay: as above; details: 72 h
A549-ACE2 [8] = assay: drug-induced phospholipidosis relative to tamoxifen; higher = more phospholipidosis
U2OS [9] = assay: drug sensitivity score (DSS) for viability; higher = more toxic; extreme values may be limits of the assay; details: 72 h
Calu-3 [10] = assay: as above; details: 72 h
Vero E6 [11] = assay: as above; details: 72 h
Caco-2 [12] = assay: as above; details: 72 h
HepG2 [13] = assay: as above; details: 72 h
U2OS [14] = assay: relative viability EC50 (midpoint between 100% and the lowest measured viability); higher = less toxic; details: 72 h
Calu-3 [15] = assay: as above; details: 72 h
Vero E6 [16] = assay: as above; details: 72 h
Caco-2 [17] = assay: as above; details: 72 h
HepG2 [18] = assay: as above; details: 72 h
[19] = test system: A549-ACE2 infected with SARS-CoV-2; assay: cell count relative to DMSO; higher = less toxic; details: 24 h
A549-ACE2 [20] = assay: phospholipidosis EC50; higher = less potent phospholipidosis inducer

Cc1ccc2cc(-c3c(C)ccc(C(=O)c4c(-c5ccccc5)n(C)n(-c5ccccc5)c4=O)c3N)ccc2n1 [AMG-PERK-44]
Details	SARS-CoV-2 infection rate, [2] [%]	cell count, [19] [%]	cell viability, Caco-2 [6] [%]	cell viability, Calu-3 [4] [%]	cell viability, HepG2 [7] [%]	cell viability, U2OS [3] [%]	cell viability, Vero E6 [5] [%]	morphology score, [1]
1 nM	–	–	92.6	105	96.5	98.4	85.8	–
10 nM	–	–	90.6	102	98.4	96.7	88.9	–
100 nM	–	–	75.3	100	93	98.1	92.9	–
0.3 µM	107	96	–	–	–	–	–	-0.16
1000 nM	–	–	68.5	95.7	91.3	102	98.7	–
3 µM	86	101	–	–	–	–	–	0.09
10 µM	91	103	–	–	–	–	–	0.05
10000 nM	–	–	97.1	111	86.7	101	116	–
30 µM	51	103	–	–	–	–	–	0.57

drug-induced phospholipidosis [%], A549-ACE2 [8]
Details	0.3 µM	0.833333 µM	3.33333 µM	6.66667 µM	10 µM	30 µM
24 h	0.1	-2.94	-0.56	4.07	7.05	23.2
48 h	0.46	-0.23	5.6	10.1	14.1	24.3
72 h	0.916	0.798	10	13.7	17.9	33.4

Details	drug sensitivity score	relative viability EC50 [µM]
Caco-2 [12]	0	–
Caco-2 [17]	–	> 10
Calu-3 [10]	0	–
Calu-3 [15]	–	> 10
HepG2 [13]	0.2	–
HepG2 [18]	–	> 10
U2OS [9]	0	–
U2OS [14]	–	> 10
Vero E6 [11]	0	–
Vero E6 [16]	–	> 10

COc1ccc(/C=C2\CCCN=C2c2cccnc2)c(OC)c1 [GTS21]
Details	SARS-CoV-2 infection rate, [2] [%]	cell count, [19] [%]	cell viability, Caco-2 [6] [%]	cell viability, Calu-3 [4] [%]	cell viability, HepG2 [7] [%]	cell viability, U2OS [3] [%]	cell viability, Vero E6 [5] [%]	morphology score, [1]
1 nM	–	–	104	97.4	113	94.8	107	–
10 nM	–	–	97.2	94.1	101	105	100	–
100 nM	–	–	93.9	101	101	96.2	103	–
0.3 µM	108	96	–	–	–	–	–	-0.18
1000 nM	–	–	106	95.3	104	102	102	–
3 µM	99	99	–	–	–	–	–	-0.04
10 µM	86	110	–	–	–	–	–	0.24
10000 nM	–	–	95.4	97	93.7	90.9	86.3	–
30 µM	28	118	–	–	–	–	–	0.78

drug-induced phospholipidosis [%], A549-ACE2 [8]
Details	0.3 µM	0.833333 µM	3.33333 µM	6.66667 µM	10 µM	30 µM
24 h	2.83	0.08	1.02	-1.62	5.46	7.31
48 h	4.89	-1.26	2.13	1.63	7.64	10
72 h	3.83	-0.539	2.57	1.51	7.5	15.1

Details	drug sensitivity score	relative viability EC50 [µM]
Caco-2 [12]	0	–
Caco-2 [17]	–	> 10
Calu-3 [10]	0	–
Calu-3 [15]	–	> 10
HepG2 [13]	0	–
HepG2 [18]	–	> 10
U2OS [9]	0	–
U2OS [14]	–	> 10
Vero E6 [11]	0.1	–
Vero E6 [16]	–	> 10

CCN(CC)CCOc1ccc(C(O)(Cc2ccc(Cl)cc2)c2ccc(C)cc2)cc1 (stereo unspecified) [Triparanol]
Details	morphology score, 0.1 µM	morphology score, 0.3 µM	morphology score, 1 µM	morphology score, 3 µM	phospholipidosis EC50, 24 h [µM]	phospholipidosis EC50, 48 h [µM]	phospholipidosis EC50, 72 h [µM]
A549-ACE2 [20]	–	–	–	–	2.19	2.74	3.71
[1]	0.02	-0.17	0.22	0.85	–	–	–

Details	drug sensitivity score
Calu-3 [10]	5.5
HepG2 [13]	6.4
U2OS [9]	1.3
Vero E6 [11]	0.7

CCCc1cc(C)[nH]c(=O)c1CNC(=O)c1cc(-c2ccc(N3CCN(C(C)C)CC3)nc2)cc2c1cnn2C(C)C [UNC1999]
Details	SARS-CoV-2 infection rate, [2] [%]	cell count, [19] [%]	cell viability, Caco-2 [6] [%]	cell viability, Calu-3 [4] [%]	cell viability, HepG2 [7] [%]	cell viability, U2OS [3] [%]	cell viability, Vero E6 [5] [%]	morphology score, [1]
1 nM	–	–	107	94.2	109	99.1	95.6	–
10 nM	–	–	103	103	100	102	94.6	–
100 nM	–	–	97.6	96.5	93.3	99.3	95.2	–
0.3 µM	100	103	–	–	–	–	–	0.06
1000 nM	–	–	96.9	91.4	99.6	107	84.7	–
3 µM	87	109	–	–	–	–	–	0.43
10 µM	29	119	–	–	–	–	–	0.8
10000 nM	–	–	83.9	89.4	88.7	102	107	–
30 µM	13	121	–	–	–	–	–	0.6

drug-induced phospholipidosis [%], A549-ACE2 [8]
Details	0.3 µM	0.833333 µM	3.33333 µM	6.66667 µM	10 µM	30 µM
24 h	15.7	-2.03	5.96	5.07	18.5	38.5
48 h	6.9	-2.52	5.26	6.51	17.6	36.4
72 h	1.41	-4.2	4.48	4.14	13.9	37

Details	drug sensitivity score	relative viability EC50 [µM]
Caco-2 [12]	0.6	–
Caco-2 [17]	–	> 10
Calu-3 [10]	0.1	–
Calu-3 [15]	–	> 10
HepG2 [13]	0	–
HepG2 [18]	–	> 10
U2OS [9]	0	–
U2OS [14]	–	> 10
Vero E6 [11]	0	–
Vero E6 [16]	–	> 10
